Measurements published in PubChem BioAssay AID651733 (The Scripps Research Institute Molecular Screening Center, 2012).
Several values for one entry are separate records, joined by “and”; a condition that tells them apart may be missing. Identical values can stand only once. Activity calls are given as the source filed them. The rule behind the calls is not given here.

Target: Perilipin-5 (Homo sapiens) + 1-acylglycerol-3-phosphate O-acyltransferase ABHD5 (Homo sapiens) (UniProt Q00G26+Q8WTS1)
Experiment: ABHD5-PLIN5 interaction inhibitors, dose response, cell lysate, luminescence, proteins expressed in HEK293T (AID 651733);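 note: split Gaussia princeps luciferase complementation between ABHD5 and MLDP fusion proteins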

Chain of Perilipin-5 (Homo sapiens) + 1-acylglycerol-3-phosphate O-acyltransferase ABHD5 (Homo sapiens) (Q00G26 whole entry, looked up, the tested form may be a part): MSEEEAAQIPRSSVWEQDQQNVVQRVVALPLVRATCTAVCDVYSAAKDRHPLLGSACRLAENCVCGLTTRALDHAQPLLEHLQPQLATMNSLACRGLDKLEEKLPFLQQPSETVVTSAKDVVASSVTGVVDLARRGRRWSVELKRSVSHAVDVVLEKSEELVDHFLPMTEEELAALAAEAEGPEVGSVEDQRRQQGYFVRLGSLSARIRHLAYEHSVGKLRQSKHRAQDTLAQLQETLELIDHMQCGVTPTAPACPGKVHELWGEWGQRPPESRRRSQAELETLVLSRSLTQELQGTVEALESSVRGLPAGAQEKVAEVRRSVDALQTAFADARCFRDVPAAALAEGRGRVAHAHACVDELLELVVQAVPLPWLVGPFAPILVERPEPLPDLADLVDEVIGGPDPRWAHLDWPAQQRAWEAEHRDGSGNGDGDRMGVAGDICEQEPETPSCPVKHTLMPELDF
Chain of Perilipin-5 (Homo sapiens) + 1-acylglycerol-3-phosphate O-acyltransferase ABHD5 (Homo sapiens) (Q8WTS1 whole entry, looked up, the tested form may be a part): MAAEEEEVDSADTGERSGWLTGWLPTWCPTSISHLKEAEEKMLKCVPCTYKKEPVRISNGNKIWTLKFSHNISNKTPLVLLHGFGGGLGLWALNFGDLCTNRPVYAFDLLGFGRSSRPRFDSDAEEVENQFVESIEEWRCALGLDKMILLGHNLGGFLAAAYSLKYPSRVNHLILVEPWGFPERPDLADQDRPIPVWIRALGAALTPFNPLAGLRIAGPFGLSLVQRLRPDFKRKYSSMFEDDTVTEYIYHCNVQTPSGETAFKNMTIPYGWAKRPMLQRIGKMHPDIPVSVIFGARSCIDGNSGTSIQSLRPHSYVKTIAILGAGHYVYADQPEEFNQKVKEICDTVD

Row | Structure (SMILES) | IC50
1 | Cc1oc2c(c1C(=O)c1ccc(Cl)cc1)C(=O)C(=O)c1ccccc1-2 | 4.38 µM
2 | c1ccc(CCC2=NCCn3cccc32)cc1 | 8.18 µM
3 | CCOC(=O)c1c(C)oc2c1c(CN1CCN(CCO)CC1)c(O)c1ccccc12 | 3.58 µM
4 | O=C(NC1CCCCC1)C(C1CC1)n1c(=O)c(-c2ccco2)nc2ccccc21 (configuration not stated) | 5.09 µM
5 | CSc1nnc(NC(=O)c2nc(S(=O)(=O)Cc3cccc(C)c3)ncc2Cl)s1 | 3.59 µM
6 | CC1=CC(C)(C)Nc2ccc(OC(=O)CN3C(=O)CCC3=O)cc21 | 3.21 µM
7 | CCCC(=O)NC(c1cccc([N+](=O)[O-])c1)c1ccc2cccnc2c1O (configuration not stated) | inactive
8 | Cc1ccc(O)c(C(=O)C=Cc2ccccc2)c1 | 2.61 µM
9 | CCOC(=O)C1C(OC(=O)c2ccccc2)CC2CCC1N2C (configuration not stated) | 5.69 µM
10 | C#CCN(C[C@@H]1[C@@H](OC(=O)Nc2cccs2)[C@@H](OC(=O)Nc2cccs2)Cn2c(=O)ccc(=O)n21)S(=O)(=O)c1ccc(C)cc1 | 3.06 µM
11 | CCCCn1c(SCC(=O)NCc2ccco2)nnc1-c1ccoc1C | 6.5 µM
12 | CCN(CC)CCOCCOC(=O)C1(c2ccccc2)CCCC1 | 2.17 µM
13 | CN(C)CCOc1ccc(/C(=C(/CCCl)c2ccccc2)c2ccccc2)cc1 | 1.2 µM
14 | Cc1ccc(/C(O)=C2/C(=O)C(=O)OC2c2ccc(Cl)cc2)cc1 (configuration not stated) | inactive
15 | Cc1ccc(CS(=O)(=O)c2ncc(Cl)c(C(=O)Nc3nnc(C(C)C)s3)n2)cc1 | 2.88 µM
16 | CC(C)c1nnc(NC(=O)c2nc(S(=O)(=O)Cc3ccc(F)cc3)ncc2Cl)s1 | 3.45 µM

Row | Structure (SMILES) | IC50
17 | C=CC(=O)N1c2ccccc2Sc2ccc(NC(=O)OCC)cc21 | 4.84 µM
18 | Cc1cccc(C)c1NC(=O)C(c1ccnc2ccccc12)n1c(=O)c(-c2ccco2)nc2ccccc21 (configuration not stated) | 6.13 µM
19 | CCOC(=O)N1CCN(C(=O)C[C@@H]2C[C@@]3(C(=O)OCC)CCC=C3N(Cc3ccc(Cl)cc3Cl)C2=O)CC1 | 7.45 µM
20 | COC(=O)c1ccc(Cn2cc(/C=C\[N+](=O)[O-])c3ccccc32)o1 | inactive
21 | CN1CCC(=C2c3ccccc3CC(=O)c3sccc32)CC1 | 5.57 µM and 5.43 µM
22 | CSc1nnc(NC(=O)c2nc(S(=O)(=O)Cc3ccccc3)ncc2Cl)s1 | 4.13 µM
23 | CC(C)(C)NC(=O)C(c1ccccc1)n1c(=O)c(-c2ccco2)nc2ccccc21 (configuration not stated) | 3.62 µM
24 | CN1CCC[C@@H]1CCO[C@](C)(c1ccccc1)c1ccc(Cl)cc1 | 6.93 µM
25 | Cc1ccc(/C=C/C(=O)c2cc(Br)ccc2OC(=O)c2ccco2)cc1 | 0.68 µM
26 | FC(F)(F)c1cccc(NC(=S)N(CCCN2CCCC2)Cc2cccn2Cc2ccc(Cl)cc2)c1 | > 13.3 µM (inactive)
27 | CCCCC(=O)NC(c1cccc([N+](=O)[O-])c1)c1ccc2cccnc2c1O (configuration not stated) | inactive
28 | CCN(CC)CCN(CC(=O)Nc1c(C)cc(C)cc1C)C(=O)c1ccccc1 | 3.93 µM
29 | O=c1[nH]c(C2CCN(S(=O)(=O)c3ccc(F)cc3)CC2)nc2c1nnn2Cc1ccc2c(c1)OCCO2 | 8.33 µM
30 | O=C(NC1CCCCC1)C(c1ccc(C(F)(F)F)cc1)n1c(=O)c(-c2ccco2)nc2ccccc21 (configuration not stated) | 3.81 µM
31 | COc1ccc(C(C(=O)Nc2ccc3c(c2)OCCO3)n2c(=O)c(-c3ccco3)nc3ccccc32)cc1 (configuration not stated) | 8.54 µM
32 | O=C(NCc1ccccc1)C(c1cccc2ccccc12)n1c(=O)c(-c2ccco2)nc2ccccc21 (configuration not stated) | 4.2 µM
